T/C data for 21 compounds are collected here from PubChem BioAssay AID328 (DTP/NCI, 2004).

For the test, the system named is BDF1 mice, P388 leukemia ip, median survival T/C. Description: NCI In Vivo Anticancer Drug Screen. Data for tumor model P388 Leukemia (intraperitoneal) in B6D2F1 (BDF1) mice. To be noted: endpoint: median survival time, higher = longer survival. In a few lines:
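Read-out is survival of treated animals expressed relative to the vehicle group, as a T/C ratio.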

The mark [1] stands for this setting: dose: 100.0 mg/kg/injection, schedule: Q01DX009 (ip), vehicle: Klucel (hydroxypropylcellulose) (HPC).
[2] abbreviates: dose: 100.0 mg/kg/injection, schedule: Q04DX003 (ip), vehicle: Klucel (hydroxypropylcellulose) (HPC).
Setting [3] is: dose: 200.0 mg/kg/injection, schedule: Q01DX009 (ip), vehicle: Klucel (hydroxypropylcellulose) (HPC).
The mark [4] stands for this setting: dose: 200.0 mg/kg/injection, schedule: Q04DX003 (ip), vehicle: Klucel (hydroxypropylcellulose) (HPC).
Where [5] appears, read: dose: 400.0 mg/kg/injection, schedule: Q01DX009 (ip), vehicle: Klucel (hydroxypropylcellulose) (HPC).
Where [6] appears, read: dose: 400.0 mg/kg/injection, schedule: Q04DX003 (ip), vehicle: Klucel (hydroxypropylcellulose) (HPC).
The mark [7] stands for this setting: dose: 100.0 mg/kg/injection, schedule: Q01DX009 (ip), vehicle: saline with Tween-80.
Setting [8] is: dose: 100.0 mg/kg/injection, schedule: Q04DX003 (ip), vehicle: saline with Tween-80.
The mark [9] stands for this setting: dose: 200.0 mg/kg/injection, schedule: Q01DX009 (ip), vehicle: saline with Tween-80.
[10] abbreviates: dose: 200.0 mg/kg/injection, schedule: Q04DX003 (ip), vehicle: saline with Tween-80.
The mark [11] stands for this setting: dose: 400.0 mg/kg/injection, schedule: Q04DX003 (ip), vehicle: saline with Tween-80.
Setting [12] is: dose: 50.0 mg/kg/injection, schedule: Q01DX009 (ip), vehicle: saline with Tween-80.
The mark [13] stands for this setting: dose: 50.0 mg/kg/injection, schedule: Q01DX009 (ip), vehicle: saline.
Setting [14] is: dose: 100.0 mg/kg/injection, schedule: Q01DX009 (ip), vehicle: saline.
The mark [15] stands for this setting: dose: 100.0 mg/kg/injection, schedule: Q01DX001 (ip), vehicle: saline with Tween-80.
Setting [16] is: dose: 200.0 mg/kg/injection, schedule: Q01DX001 (ip), vehicle: saline with Tween-80.
Setting [17] is: dose: 400.0 mg/kg/injection, schedule: Q01DX001 (ip), vehicle: saline with Tween-80.

Where “and” joins values, the source holds several entries; their conditions need not be identical. Equal entries are not always repeated. Inconclusive results and toxic doses are left out.

For `O=C(NCCO)c1cc2ccccc2cc1O`, the T/C runs as follows: under setting [1], 90 % of control; under setting [2], 104 % of control; under setting [3], 100 % of control; under setting [4], 100 % of control; under setting [5], 100 % of control; under setting [6], 100 % of control.
Turning to `COc1ccc(-c2cc(=O)c3cc(OC)c(OC)cc3o2)cc1OC`, the T/C by setting is: (dose: 1.88 mg/kg/injection, schedule: Q01DX009 (ip), vehicle: saline) 94 % of control; (dose: 3.75 mg/kg/injection, schedule: Q01DX009 (ip), vehicle: saline) 91 % of control.
In the case of `CCCC#CCOCC1CO1` (stereo not drawn), the T/C under setting [7] was 116 % of control; the T/C under setting [8] is 100 % of control; the T/C under setting [9] was 120 % of control; the T/C under setting [10] was 100 % of control; the T/C under setting [11] is 95 % of control.
Consider `CCCOC(=O)c1ccc([N+](=O)[O-])cc1`, for which the T/C is, setting by setting: under setting [1], 95 % of control; under setting [3], 100 % of control; under setting [5], 100 % of control.
In the case of `NC1=NS(=O)(=O)N=C(N)C1=NNc1ccccc1`, the T/C is, setting by setting: under setting [12], 92 % of control; under setting [7], 99 % of control; under setting [9], 103 % of control.
`O=C(Nc1ccc(Cl)cc1)P(=O)(O)c1ccccc1`: the T/C (dose: 6.25 mg/kg/injection, schedule: Q01DX009 (ip), vehicle: saline) is 98 % of control; the T/C (dose: 12.5 mg/kg/injection, schedule: Q01DX009 (ip), vehicle: saline) was 104 % of control; the T/C (dose: 25.0 mg/kg/injection, schedule: Q01DX009 (ip), vehicle: saline) was 98 % of control; the T/C under setting [13] was 99 % of control; the T/C under setting [14] is 100 % of control and 102 % of control.
With `CN=C(c1ccccc1)C1(O)CC2CCC1C2` (stereo not drawn), the T/C under setting [15] was 100 % of control, the T/C under setting [16] is 104 % of control and the T/C under setting [17] is 100 % of control.
As to `CC(=O)C1CCC2C3CCC4=CC(=O)CC4(C)C3CCC12C` (stereo not drawn), the T/C reads like this: under setting [12], 95 % of control; (dose: 50.0 mg/kg/injection, schedule: Q04DX003 (ip), vehicle: saline with Tween-80) 104 % of control; under setting [7], 90 % of control and 100 % of control; under setting [8], 95 % of control and 104 % of control; under setting [9], 90 % of control and 95 % of control; under setting [10], 90 % of control and 95 % of control. In addition, the T/C was 86 % of control (dose: 400.0 mg/kg/injection, schedule: Q01DX009 (ip), vehicle: saline with Tween-80) and 90 % of control under setting [11].
As to `Nn1nc2ccccc2n1`, the T/C reads like this: (dose: 100.0 mg/kg/injection, schedule: Q04DX003 (ip), vehicle: other) 100 % of control; (dose: 200.0 mg/kg/injection, schedule: Q04DX003 (ip), vehicle: other) 100 % of control; (dose: 400.0 mg/kg/injection, schedule: Q04DX003 (ip), vehicle: other) 100 % of control.
As to `COc1cc(/C=N\N=C\c2ccc(O)c(OC)c2)ccc1O`, the T/C reads like this: under setting [15], 100 % of control; under setting [16], 104 % of control; under setting [17], 100 % of control.
For `C1=CC(=P(c2ccccc2)(c2ccccc2)c2ccccc2)C=C1`, the T/C is 100 % of control (dose: 50.0 mg/kg/injection, schedule: Q01DX010 (ip), vehicle: saline); 100 % of control (dose: 100.0 mg/kg/injection, schedule: Q01DX010 (ip), vehicle: saline); 100 % of control (dose: 200.0 mg/kg/injection, schedule: Q01DX010 (ip), vehicle: saline); 100 % of control (dose: 400.0 mg/kg/injection, schedule: Q01DX010 (ip), vehicle: saline).
As to `C=C1C(=O)O[C@@H]2C[C@@H](C)[C@@H]3C=CC(=O)[C@@]3(C)[C@@H](O)[C@H]12`, the T/C is 109 % of control (dose: 0.88 mg/kg/injection, schedule: Q01DX009 (ip), vehicle: saline); 113 % of control (dose: 1.3 mg/kg/injection, schedule: Q01DX009 (ip), vehicle: saline); 116 % of control (dose: 2.0 mg/kg/injection, schedule: Q01DX009 (ip), vehicle: saline + alcohol); 116 % of control (dose: 4.0 mg/kg/injection, schedule: Q01DX010 (ip), vehicle: other); 116 % of control (dose: 5.0 mg/kg/injection, schedule: Q01DX009 (ip), vehicle: saline + alcohol); 109 % of control (dose: 5.0 mg/kg/injection, schedule: Q01DX009 (ip), vehicle: saline with Tween-80). For the same compound, the T/C (dose: 5.0 mg/kg/injection, schedule: Q01DX010 (ip), vehicle: other) was 112 % of control; the T/C (dose: 6.0 mg/kg/injection, schedule: Q01DX010 (ip), vehicle: other) was 116 % of control; the T/C (dose: 8.0 mg/kg/injection, schedule: Q01DX009 (ip), vehicle: alcohol) is 163 % of control; the T/C (dose: 8.0 mg/kg/injection, schedule: Q01DX009 (ip), vehicle: saline + alcohol) was 168 % of control; the T/C (dose: 8.0 mg/kg/injection, schedule: Q01DX010 (ip), vehicle: other) was 116 % of control.
Take `Cc1cc(C)c(NS(=O)(=O)c2ccccc2)c(C)n1`: the T/C was 100 % of control under setting [8], 91 % of control under setting [10] and 91 % of control under setting [11].
Regarding `Cc1ccc(S[Si](Sc2ccc(C)cc2)(Sc2ccc(C)cc2)Sc2ccc(C)cc2)cc1`, the T/C by setting is: (dose: 200.0 mg/kg/injection, schedule: Q04DX002 (ip), vehicle: saline with Tween-80) 92 % of control; (dose: 400.0 mg/kg/injection, schedule: Q04DX002 (ip), vehicle: saline with Tween-80) 100 % of control.
For the compound `Cc1nc[nH]c(=O)c1N`, the T/C is, setting by setting: under setting [13], 102 % of control; under setting [14], 102 % of control; (dose: 200.0 mg/kg/injection, schedule: Q01DX009 (ip), vehicle: saline) 102 % of control.
With `O=S(=O)(C=C(N1CCCCC1)N1CCCCC1)Cc1ccccc1`, the T/C by setting is: (dose: 8.75 mg/kg/injection, schedule: Q01DX009 (ip), vehicle: saline) 105 % of control; (dose: 17.5 mg/kg/injection, schedule: Q01DX009 (ip), vehicle: saline) 115 % of control; (dose: 26.25 mg/kg/injection, schedule: Q04DX003 (ip), vehicle: saline) 108 % of control; (dose: 35.0 mg/kg/injection, schedule: Q01DX009 (ip), vehicle: saline) 105 % of control; (dose: 52.5 mg/kg/injection, schedule: Q04DX003 (ip), vehicle: saline) 104 % of control.
As to `C#CCOC(=O)Nc1cccc2ccccc12`, the T/C is 100 % of control under setting [1]; 100 % of control under setting [2]; 110 % of control under setting [3]; 100 % of control under setting [4]; 120 % of control under setting [5]; 109 % of control under setting [6].
As for `COc1ccc(N=NNc2ccc(OC)cc2)cc1`, the T/C reads like this: (dose: 25.0 mg/kg/injection, schedule: Q01DX009 (ip), vehicle: saline with Tween-80) 154 % of control; (dose: 37.5 mg/kg/injection, schedule: Q01DX009 (ip), vehicle: saline with Tween-80) 155 % of control and 166 % of control.
Take `CCN(CC)c1ccc(NC(=O)Nc2ccccc2C)cc1`: the T/C was 95 % of control under setting [8], 95 % of control under setting [10] and 90 % of control under setting [11].
On to `CC(=O)OCC(=O)[C@@]1(O)CC[C@H]2[C@@H]3CCC4=CC(=O)CC[C@]4(C)[C@H]3C(=O)C[C@@]21C`, for which the T/C was 95 % of control under setting [12]; 112 % of control under setting [7]; 100 % of control under setting [8]; 100 % of control under setting [9]; 86 % of control under setting [10].
Regarding `O=[N+]([O-])c1cc(S(=O)(=O)NCc2ccco2)ccc1N/N=C/c1ccccn1`, the T/C is, setting by setting: (dose: 0.78 mg/kg/injection, schedule: Q01DX009 (ip), vehicle: saline with Tween-80) 99 % of control; (dose: 1.56 mg/kg/injection, schedule: Q01DX009 (ip), vehicle: saline with Tween-80) 99 % of control; (dose: 3.12 mg/kg/injection, schedule: Q01DX009 (ip), vehicle: saline with Tween-80) 95 % of control.
